Assay results as given in US20040116527A1, “Agents against stress-induced diseases” (AJINOMOTO CO., INC., priority 2001, published 2004).

Tests used:
Wistar rats [1] = test: Model with stress-induced appetite loss, foot shock stress (Example 4); type: in vivo, rat; conditions: lysine-added diet (27 g/kg) vs control diet (13.4 g/kg), fed from 4 days before foot shock stress
Description: Wistar rats (male; age 13 weeks; about 400 g or so; N=16) were used at this experiment. Four days before the start of the experiment and throughout the stress experiment, the rats were fed with normal diet (control diet; lysine at 13.4 g/kg) and the lysine-added diet (27 g/kg). Under conditions of water ad libitum, feeding was done from 9:00 to 11:00. The rats were subjected to foot shock stress (1 mA/3 minutes; once per one hour at 19:00 to 7:00 on the next day) on day 4 of feeding; foot shock stress (1 mA/3 minutes, once per 2 hours at 19:00 to 7:00 on the next day) on day 5; and foot shock stress (1 mA/3 minutes, once at 7:00) on day 6. The changes in the total feed intake each day and the change of body weight over days were measured.

rats = test: Water-immersion restraint model of stress-induced gastric ulcer, diets (Example 3); type: in vivo, rat; conditions: 3-week feeding, 18 h starvation, water immersion 6 hours at 22 to 25 C
Description: Rats were fed with the low lysine diet and the lysine-added diet supplemented for lysine deficiency (see Table 1) for 3 weeks. After starvation for 18 hours, the rats were placed in a stress gage (Natsume Seisakusho; KN-468) to immerse the rats in water (temperature of 22 to 25° C.) so as to soak their breast for 6 hours. Thereafter, a stomach was resected, to calculate the area with gastric bleeding, to examine the degree of gastric bleeding with the NHI image software. […] A correlation between gastric bleeding and the incidence of gastric ulcer is observed in this model. Therefore, it can be concluded that adding lysine to diet can prevent stress-induced gastric ulcer occurring on the low lysine diet.

[2] = test system: mojyako (young yellow tail); test: Feeding test under stress from feeding at high density in a water tank (Example 7); type: in vivo; conditions: for Total feed intake: 24 feeding days; for Daily feeding ratio (%) / Daily increment (%) / Feed efficiency (%) / Survival rate (%): 28 day test; for Survival rate (%): 40 fish per 800-L tank; for feed intake compared with the remaining experimental lots (involving higher body weight increment): over the 3 week to 4 week
Description: Test feeds were prepared by adding lysine hydrochloride salt at the ratio shown in Table 3 below to a commercially available mashed feed for mojyako. The lysine content in the dry feed is thereby at 4.8%, which is far above the dietetic requirement (1.78%). For comparison, further, a feed was prepared by adding arginine hydrochloride salt at the same level instead of lysine hydrochloride salt, for use at the test.
As test fish, each group of 40 mojyako fishes of mean fish body weight of about 35 g were placed in one 800-L water tank, to which the feeds were fed two times daily at 8:00 in the morning and 16:00 in the afternoon to satiation, for a total of 4 weeks. During the term, their body weights were measured weekly. Herein, feeding was not done at 16:00 in the afternoon on the day before the day for body weight measurement.

Wistar rats [3] = test: Elevated T-maze test after water-immersion stress, oral aqueous solutions (Example 6); type: in vivo, rat
Description: Seven-week Wistar rats (male, Nippon Charles-River) were used. For 7 days, the normal diet (CRF-1; Oriental Yeast) was fed ad libitum to the rats, for preliminary feeding. For the stress experiment, the rats were divided into the following three groups for feeding for another 3 days under starvation conditions: 1) a group (N=14) fed with an aqueous glutamine solution (120 mg/mL); 2) a group (N=14) given with an aqueous lysine solution (120 mg/mL); and 3) a group (N=14) given with an aqueous mixture solution of lysine glutamate salt (120 mg/mL) and arginine (120 mg/mL). The aqueous solutions were given to the individual groups in such a manner that dosing of 5 mL of each solution was enforced with an oral probe, once daily at 9:00 in the morning. During the term, water was fed ad libitum. On day 4, the rats were placed in a stress gage (Natsume Seisakusho; KN-468) to immerse the rats in water (temperature of 22 to 25° C.) so as to soak their breast for 4 hours for stress loading. Thereafter, elevated T-maze (see Example 1) test was done, for counting the time duration for searching action.

Wistar rats [4] = test: Stress-induced gastric ulcer experiment, oral aqueous solutions (Example 5); type: in vivo, rat; conditions: 5 mL orally once daily for 3 days, water immersion 5 hours on day 4; compared with control group fed pure water
Description: To assess the effects of lysine administration on stress-induced gastric ulcers, 7-week Wistar rats (male; Nippon Charles-River) were used. For 7 days, normal diet (CRF-1; Oriental Yeast) was fed ad libitum to the rats, for preliminary feeding. For the stress experiment, rats were divided into the following three groups for feeding for another 3 days under starvation conditions: I) a control group (N=8) fed with pure water; 2) a group (N=8) given with an aqueous lysine solution (40 mg/mL); and 3) a group (N=4) given with an aqueous mixture solution of lysine glutamate salt (40 mg/mL) and arginine (40 mg/mL). The aqueous solutions were given to the individual groups in such a manner that dosing of 5 mL of each solution was enforced with an oral probe, once daily at 9:00 in the morning.
During the term, water was fed ad libitum. On day 4, the rats were placed in a stress gage (Natsume Seisakusho; KN-468) as in Example 3, to immerse the rats in water (temperature of 22 to 25° C.) so as to soak their breast for 5 hours to induce stress-induced gastric ulcer.

[5] = test system: Broiler (species: Arbor Acres); test: Broiler feeding at normal and high density under very hot conditions (Example 8); type: in vivo; conditions: loading of lysine alone, ratio of arginine/lysine in the feed lowered
Excerpt: Broiler (species: Arbor Acres) was fed under very hot conditions.
The feeding density was 8 chickens/1 m^2 (normal density) and 12 chickens/1 m^2 (high density) in two lots; the feeds were the following three groups: Feed 1=normal feed; Feed 2=normal feed+lysine (the lysine content 2-fold that in Feed 1); or Feed 3=normal feed+lysine+arginine (the lysine content and the arginine content were individually 2-fold those in Feed 1). A total of 6 experimental examples were set as combinations of the feeding densities and the feeds. The test was started on age 21 days (the mean body weight then was 722 g). The feeding results (body weight increment, feed requirement) on age 48 days were compared thereto. On the age 48 days, the chickens were sacrificed to death, for the evaluation of their meat quality (fat ratio in abdominal cavity). The feed requirement was expressed by the feed amount required for the increment of 1 g/body weight, as calculated by dividing the total feed intake by the body weight increment.

SMILES	Total feed intake [2] [g]	Daily feeding ratio (%) [2] [%]	Daily increment (%) [2] [%]	Feed efficiency (%) [2] [%]	Survival rate (%) [2] [%]	Mean body weight at start [2]	Weekly feed intake (g) for 0-1 week [2] [g]	Weekly feed intake (g) for 1-2 week [2] [g]	Weekly feed intake (g) for 2-3 week [2] [g]	Weekly feed intake (g) for 3-4 week [2] [g]	Mean body weight on 1 week [2]	Mean body weight on 2 week [2]	Mean body weight on 3 week [2]	Mean body weight on 4 week (final) [2]	feed intake compared with the remaining experimental lots (involving higher body weight increment) [2]	further results
NCCCC[C@H](N)C(=O)O [Lysine, L-Lysine]	3452	4.29	3.68	85.8	100	34.8	18.4	38.3	59.9	86.3	46.4	63.7	84.2	108.9	larger	effect on total feed intake and body weight change under stress (Wistar rats [1]): preventive effect; degree in areas of gastric bleeding (ratio of the area of gastric bleeding to the total gastric area) (rats): can prevent; body weight increment compared with the control ([2]; at the termination of the test): 17%; time duration for searching action (Wistar rats [3]; 5 mL orally once daily for 3 days, water immersion 4 hours on day 4, compared with the glutamine group): significantly prolonged; areas of gastric bleeding (Wistar rats [4]): significant reduction; growth inhibition [5]: no growth inhibition is observed
N=C(N)NCCC[C@H](N)C(=O)O [Arginine, L-Arginine, reference compound]	3072	4.09	3.36	82.0	100	35.5	18.7	36.7	54.5	76.8	45.7	61.5	77.6	98.5	could not be obtained	–
NC(=O)CC[C@H](N)C(=O)O [glutamine, L-Glutamine, reference compound]	–	–	–	–	–	–	–	–	–	–	–	–	–	–	–	time duration for searching action, glutamine group vs physiological saline group (Wistar rats [3]; evaluation of the effect of glutamine): No significant difference
